Measured values: ChEMBL document CHEMBL2380247, “Synthesis and biological evaluation of novel aliphatic amido-quaternary ammonium salts for anticancer chemotherapy: part II” (2013)
The source made the active and inactive calls. No cut-off for these calls is given here.

Key:
ACHN [1] = experiment: Antiproliferative activity against human ACHN cells by SRB assay; format: functional
PC-3 [2] = experiment: Antiproliferative activity against human PC3 cells by SRB assay; format: functional
[3] = biological target: Rho-related GTP-binding protein RhoB (Homo sapiens) (UniProt P62745); experiment: Transactivation of RhoB in human HeLa cells by luciferase reporter assay; format: cell-based
Rho-related GTP-binding protein RhoB (Homo sapiens), sequence (P62745 whole entry): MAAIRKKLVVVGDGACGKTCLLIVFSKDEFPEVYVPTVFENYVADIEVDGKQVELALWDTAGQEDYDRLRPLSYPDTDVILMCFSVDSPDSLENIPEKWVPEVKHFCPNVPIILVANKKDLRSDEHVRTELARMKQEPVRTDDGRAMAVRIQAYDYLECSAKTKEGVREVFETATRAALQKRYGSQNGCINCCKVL

NCI-H23 [4] = experiment: Antiproliferative activity against human NCI-H23 cells by SRB assay; format: functional
MDA-MB-231 [5] = experiment: Antiproliferative activity against human MDA-MB-231 cells by SRB assay; format: functional
NUGC-3 [6] = experiment: Antiproliferative activity against human NUGC3 cells by SRB assay; format: functional
NUGC-3 [7] = experiment: Antiproliferative activity against human NUGC3 cells at 3 uM by SRB assay; format: functional
PC-3 [8] = experiment: Antiproliferative activity against human PC3 cells at 3 uM by SRB assay; format: functional
PC-3 [9] = experiment: Antiproliferative activity against human PC3 cells at 0.1 uM by SRB assay; format: functional
ACHN [10] = experiment: Antiproliferative activity against human ACHN cells at 0.3 uM by SRB assay; format: functional
ACHN [11] = experiment: Antiproliferative activity against human ACHN cells at 0.1 uM by SRB assay; format: functional
HCT-15 [12] = experiment: Antiproliferative activity against human HCT15 cells at 0.3 uM by SRB assay; format: functional
NUGC-3 [13] = experiment: Antiproliferative activity against human NUGC3 cells at 1 uM by SRB assay; format: functional
ACHN [14] = experiment: Antiproliferative activity against human ACHN cells at 3 uM by SRB assay; format: functional
HCT-15 [15] = experiment: Antiproliferative activity against human HCT15 cells by SRB assay; format: functional
NUGC-3 [16] = experiment: Antiproliferative activity against human NUGC3 cells at 0.3 uM by SRB assay; format: functional
NUGC-3 [17] = experiment: Antiproliferative activity against human NUGC3 cells at 10 uM by SRB assay; format: functional
PC-3 [18] = experiment: Antiproliferative activity against human PC3 cells at 10 uM by SRB assay; format: functional
MDA-MB-231 [19] = experiment: Antiproliferative activity against human MDA-MB-231 cells at 0.1 uM by SRB assay; format: functional
NCI-H23 [20] = experiment: Antiproliferative activity against human NCI-H23 cells at 0.3 uM by SRB assay; format: functional
PC-3 [21] = experiment: Antiproliferative activity against human PC3 cells at 0.3 uM by SRB assay; format: functional
HCT-15 [22] = experiment: Antiproliferative activity against human HCT15 cells at 3 uM by SRB assay; format: functional
MDA-MB-231 [23] = experiment: Antiproliferative activity against human MDA-MB-231 cells at 10 uM by SRB assay; format: functional
NCI-H23 [24] = experiment: Antiproliferative activity against human NCI-H23 cells at 0.1 uM by SRB assay; format: functional
NCI-H23 [25] = experiment: Antiproliferative activity against human NCI-H23 cells at 3 uM by SRB assay; format: functional
HCT-15 [26] = experiment: Antiproliferative activity against human HCT15 cells at 10 uM by SRB assay; format: functional
PC-3 [27] = experiment: Antiproliferative activity against human PC3 cells at 1 uM by SRB assay; format: functional
MDA-MB-231 [28] = experiment: Antiproliferative activity against human MDA-MB-231 cells at 3 uM by SRB assay; format: functional
ACHN [29] = experiment: Antiproliferative activity against human ACHN cells at 1 uM by SRB assay; format: functional
NCI-H23 [30] = experiment: Antiproliferative activity against human NCI-H23 cells at 1 uM by SRB assay; format: functional
NUGC-3 [31] = experiment: Antiproliferative activity against human NUGC3 cells at 0.1 uM by SRB assay; format: functional
HCT-15 [32] = experiment: Antiproliferative activity against human HCT15 cells at 1 uM by SRB assay; format: functional
MDA-MB-231 [33] = experiment: Antiproliferative activity against human MDA-MB-231 cells at 0.3 uM by SRB assay; format: functional
MDA-MB-231 [34] = experiment: Antiproliferative activity against human MDA-MB-231 cells at 1 uM by SRB assay; format: functional
NCI-H23 [35] = experiment: Antiproliferative activity against human NCI-H23 cells at 10 uM by SRB assay; format: functional
ACHN [36] = experiment: Antiproliferative activity against human ACHN cells at 10 uM by SRB assay; format: functional
HCT-15 [37] = experiment: Antiproliferative activity against human HCT15 cells at 0.1 uM by SRB assay; format: functional

GI50 (ACHN [1]) [nM] | GI50 (PC-3 [2]) [nM] | GI50 (NCI-H23 [4]) [nM] | GI50 (MDA-MB-231 [5]) [nM] | GI50 (HCT-15 [15]) [nM] | Structure (SMILES) | GI50 (NUGC-3 [6]) [nM] | growth, % of control at 3 µM (NUGC-3 [7]) [%] | growth, % of control at 3 µM (PC-3 [8]) [%] | growth, % of control at 0.1 µM (PC-3 [9]) [%] | growth, % of control at 0.3 µM (ACHN [10]) [%] | growth, % of control at 0.1 µM (ACHN [11]) [%] | growth, % of control at 0.3 µM (HCT-15 [12]) [%] | growth, % of control at 1 µM (NUGC-3 [13]) [%] | growth, % of control at 3 µM (ACHN [14]) [%] | growth, % of control at 0.3 µM (NUGC-3 [16]) [%] | growth, % of control at 10 µM (NUGC-3 [17]) [%] | growth, % of control at 10 µM (PC-3 [18]) [%] | growth, % of control at 0.1 µM (MDA-MB-231 [19]) [%] | growth, % of control at 0.3 µM (NCI-H23 [20]) [%] | growth, % of control at 0.3 µM (PC-3 [21]) [%] | also measured
500 | 370 | 880 | 680 |  | C=CC[N+]1(CC)CCN(C(=O)CCCCCCCCCCCCCCC)CC1 | 270 |  |  |  |  |  |  |  |  |  |  |  |  |  |  | Activity [3]: Active
1750 | 470 | 900 | 1640 | > 10000 | C=CC[N+](C)(C)CC(C)(C)CNC(=O)CCCCCCCCCCCCCCCCC | 770 | 28.5 | -27.7 | 94.9 | 93.5 | 93.2 | 99.8 | 65.2 | 60.4 | 89.9 | -5.72 | -45.4 | 94.3 | 93.7 | 91 | growth, % of control at 3 µM (HCT-15 [22]): 85.5%; growth, % of control at 10 µM (MDA-MB-231 [23]): 25%; growth, % of control at 0.1 µM (NCI-H23 [24]): 92.8%; growth, % of control at 3 µM (NCI-H23 [25]): 29.4%; growth, % of control at 10 µM (HCT-15 [26]): 61.7%; growth, % of control at 1 µM (PC-3 [27]): 33.7%; growth, % of control at 3 µM (MDA-MB-231 [28]): 48.3%; growth, % of control at 1 µM (ACHN [29]): 85.1%; growth, % of control at 1 µM (NCI-H23 [30]): 75.3%; growth, % of control at 0.1 µM (NUGC-3 [31]): 92.3%; growth, % of control at 1 µM (HCT-15 [32]): 99%; growth, % of control at 0.3 µM (MDA-MB-231 [33]): 88.8%; growth, % of control at 1 µM (MDA-MB-231 [34]): 80.8%; growth, % of control at 10 µM (NCI-H23 [35]): -40%; growth, % of control at 10 µM (ACHN [36]): 3.8%; growth, % of control at 0.1 µM (HCT-15 [37]): 102%
1950 | 300 | 980 | 1120 | 2740 | CCCCCCCCCCCCCCCCCC(=O)NCC(C)(C)C[N+](C)(C)CC | 420 | 14.8 | -38.3 | 89.5 | 82.9 | 91.5 | 96.7 | 52.5 | 50 | 69.6 | 2.11 | -46.2 | 87.8 | 97.7 | 82.2 | growth, % of control at 3 µM (HCT-15 [22]): 61.6%; growth, % of control at 10 µM (MDA-MB-231 [23]): 19.9%; growth, % of control at 0.1 µM (NCI-H23 [24]): 95.1%; growth, % of control at 3 µM (NCI-H23 [25]): 29.8%; growth, % of control at 10 µM (HCT-15 [26]): 32.6%; growth, % of control at 1 µM (PC-3 [27]): 21.6%; growth, % of control at 3 µM (MDA-MB-231 [28]): 40.4%; growth, % of control at 1 µM (ACHN [29]): 75.5%; growth, % of control at 1 µM (NCI-H23 [30]): 74.7%; growth, % of control at 0.1 µM (NUGC-3 [31]): 83.1%; growth, % of control at 1 µM (HCT-15 [32]): 86.8%; growth, % of control at 0.3 µM (MDA-MB-231 [33]): 79.1%; growth, % of control at 1 µM (MDA-MB-231 [34]): 70.4%; growth, % of control at 10 µM (NCI-H23 [35]): -18.3%; growth, % of control at 10 µM (ACHN [36]): 33%; growth, % of control at 0.1 µM (HCT-15 [37]): 98%
